Assay results as given in patent publication EP4800018A1, “PAN-KRAS INHIBITOR AND USE THEREOF IN MEDICINES” (Betta Pharmaceuticals Co., Ltd., priority 2023, dated 2025).

Columns and labels:
Assay type in all cases: cell-based
[1] = test system: KRAS-G12D mutant tumor cells AGS; experiment: Cell Proliferation Inhibition Assay (AGS), Cell-titer GLO, 96 h; conditions: Homo sapiens, AGS, 96 h, AGS cells, 96 h incubation, Cell-titer GLO; read-out: AGS(G12D)
Procedure: KRAS-G12D mutant tumor cells AGS were seeded in low-attachment 96-well plates at a cell density of 1×10^3 cells/well and cultured overnight in a cell culture incubator. […] After incubation at 37°C for 96 h, 50 µL of Cell-titer GLO working solution was added to each well, mixed by shaking, incubated at room temperature for 10 min, and the Luminescence value was read on a multi-function microplate reader. The luminescence data were calculated and converted into inhibition percent. The inhibition percent of cell proliferation was calculated according to the following formula: Inhibition Percent = (MaxValue−MeasuredValue)/(MaxValue−Blank) × 100% [formula] […] Curve fitting was performed using GraphPad Prism software to obtain IC50 values, see Table 1.

[2] = test system: KRAS-G12V mutant tumor cells SW620; experiment: Cell Proliferation Inhibition Assay (SW620), Cell-titer GLO, 96 h; conditions: Homo sapiens, SW-620, 96 h, SW620 cells, 96 h incubation, Cell-titer GLO; read-out: SW620(G12V)
Procedure: KRAS-G12V mutant tumor cells SW620 were seeded in low-attachment 96-well plates at a cell density of 1×10^3 cells/well and cultured overnight in a cell culture incubator. After the cells adhered, the test compounds were added to the 96-well plates at final concentrations of 10000, 2000, 400, 80, 16, 3.2, 0.64, 0.13, 0.03, 0 nM (final concentration of DMSO was 0.5% for all). After incubation at 37°C for 96 h, 50 µL of Cell-titer GLO working solution was added to each well, mixed by shaking, incubated at room temperature for 10 min, and the Luminescence value was read on a multi-function microplate reader. The luminescence data were calculated and converted into inhibition percent. The inhibition percent of cell proliferation was calculated according to the following formula: Inhibition Percent = (MaxValue−MeasuredValue)/(MaxValue−Blank) × 100% [formula]
("Max Value" comes from the 0.5% DMSO control well, "Blank" comes from the blank control well, and "Measured Value" comes from the compound-treated well).
Curve fitting was performed using GraphPad Prism software to obtain IC50 values, see Table 1.

KRAS G12D-cRAF = biological target: T1, KRAS G12D-cRAF (Homo sapiens, UniProt P01116, G12D); experiment: Cellular KRAS G12D-cRAF Binding Inhibition Assay (NanoBRET, AD293 stable cells); conditions: 3 h incubation, read-out: NanoBRET KRAS G12D
T1 construct: expressed in transfected cells
T1 sequence (P01116 1-188 isoform P01116-2 G12D): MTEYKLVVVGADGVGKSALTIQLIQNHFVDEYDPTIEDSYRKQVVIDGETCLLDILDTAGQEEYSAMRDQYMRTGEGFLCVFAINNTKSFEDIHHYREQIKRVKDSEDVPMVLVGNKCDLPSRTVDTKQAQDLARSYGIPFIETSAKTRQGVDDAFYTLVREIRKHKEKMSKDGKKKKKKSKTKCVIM
Procedure: (§1) NanoLuc® luciferase was used as the energy donor, and NanoBRET™ 618 fluorescent ligand labeled with the HaloTag® protein was used as the energy acceptor to detect protein-protein interactions in living cells. AD293 stable cells transfected with KRAS G12D-NanoLuc® luciferase and cRAF RBD-HaloTag® tag protein were seeded in 96-well plates at a cell density of 1×10^4 cells/well. Except for wells with medium added as a blank control, NanoBRET™ 618 fluorescent ligand was added to all other wells, and the plates were cultured overnight in a cell culture incubator. […] The luminescence data were calculated and converted into inhibition percent. The inhibition percent of KRAS G12D-cRAF binding was calculated according to the following formula: Inhibition Percent = (MaxValue−MeasuredValue)/(MaxValue−Blank) × 100% [formula] […] Curve fitting was performed using GraphPad Prism software to obtain IC50 values, see Table 1.

KRAS G12V-cRAF = biological target: T2, KRAS G12V-cRAF (Homo sapiens, UniProt P01116, G12V); experiment: Cellular KRAS G12V-cRAF Binding Inhibition Assay (NanoBRET, AD293 stable cells); conditions: 3 h incubation, read-out: NanoBRET KRAS G12V
T2 construct: expressed in transfected cells
T2 sequence (P01116 1-188 isoform P01116-2 G12V): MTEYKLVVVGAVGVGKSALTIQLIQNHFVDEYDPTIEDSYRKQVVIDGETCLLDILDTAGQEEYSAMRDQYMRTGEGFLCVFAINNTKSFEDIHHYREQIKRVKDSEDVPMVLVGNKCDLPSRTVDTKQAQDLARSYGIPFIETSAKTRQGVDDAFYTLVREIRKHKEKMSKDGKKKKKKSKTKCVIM
Procedure: as §1, with “AD293 stable cells transfected with KRAS G12D-NanoLuc® luciferase and cRAF RBD-HaloTag® tag protein were seeded in 96-well plates at a cell density of 1×10^4 cells/well.” left out, “G12V-cRAF” for “G12D-cRAF”

Row | SMILES | IC50 [1] [nM] | IC50 [2] [nM] | IC50 (KRAS G12D-cRAF) [nM] | IC50 (KRAS G12V-cRAF) [nM]
1 | COCCN1CCN(c2cnc3c(c2)-c2c4c5cc(ccc5n2CCCOC3C)-c2csc(n2)CC(NC(=O)C23CC(C)(C2)C3)C(=O)N2CCCC(N2)C(=O)OCC(C)(C)C4)CC1 [Example 38, N-((1^5S,6^3S,4S,Z)-1^2-(4-(2-methoxyethyl)piperazin-1-yl)-1^5,10,10-trimethyl-5,7-dioxo-1^8,1^9,6^1,6 ^2,6^3,6^4,6^5,6^6-octahydro-1^5H,1^7H-8-oxa-1(13,15)-pyrido[3',2':7,8][1,5]oxazonino[5,6-a]indola-2(4 ,2)-thiazola-6(1,3)-pyridazinacycloundecaphane-4-yl)-3-methylbicyclo[1.1.1]pentane-1-carboxamide] | 4.2 | 1.72 | 8.6 | 31.9
2 | CC1OCCCn2c(c3c4cc(ccc42)-c2csc(n2)CC(NC(=O)C24CC(C)(C2)C4)C(=O)N2CCCC(N2)C(=O)OCC(C)(C)C3)-c2cc(N3CCN(CC(F)(F)F)CC3)cnc21 [Example 39, 3-methyl-N-((1^5S,6^3S,4S,Z)-1^5,10,10-trimethyl-5,7-dioxo-1^2-(4-(2,2,2-trifluoroethyl)piperazin-1-yl)-1^8,1^9,6^1,6^2,6^3,6^4,6^5,6^6-octahydro-1^5H,1^7H-8-oxa-1(13,15)-pyrido[3',2':7,8][1,5]oxazonino[5,6-a]indola-2(4,2)-thiazola-6(1,3)-pyridazinacycloundecaphane-4-yl)bicyclo[1.1.1]pentane-1-carbo xamide] | 33.7 | 8.17 | 22.1 | 86.4
3 | CC1OCCCn2c(c3c4cc(ccc42)-c2csc(n2)CC(NC(=O)C24CC(C)(C2)C4)C(=O)N2CCCC(N2)C(=O)OCC(C)(C)C3)-c2cc(N3CCN(C4CC4)CC3)cnc21 [Example 40, N-((1^5S,6^3S,4S,Z)-1^2-(4-cyclopropylpiperazin-1-yl)-1^5,10,10-trimethyl-5,7-dioxo-1^8,1^9,6^1,6^2,6^3,6 ^4,6^5,6^6-octahydro-1^5H,1^7H-8-oxa-1(13,15)-pyrido[3',2':7,8][1,5]oxazonino[5,6-a]indola-2(4,2)-thiazola-6(1,3)-pyridazinacycloundecaphane-4-yl)-3-methylbicyclo[1.1.1]pentane-1-carboxamide] | 22.4 | 4.29 | 15.8 | 61.1
4 | CC1OCCCn2c(c3c4cc(ccc42)-c2csc(n2)CC(NC(=O)C2CC2C(F)F)C(=O)N2CCCC(N2)C(=O)OCC(C)(C)C3)-c2cc(N3CCOCC3)cnc21 [Example 83, (1S,2S)-2-(difluoromethyl)-N-((1^5S,6^3S,4S,Z)-1^5,10,10-trimethyl-1^2-morpholino-5,7-dioxo-1^8,1^9, 6^1,6^2,6^3,6^4,6^56-octahydro-1^5H,1^7H-8-oxa-1(13,15)-pyrido[3',2':7,8][1,5]oxazonino[5,6-a]indola-2(4,2)-thiazola-6(1,3)-pyridazinacycloundecaphane-4-yl)cyclopropane-1-carboxamide] | 2.04 | 0.33 | 2.88 | 11.9
5 | CC1OCCCn2c(c3c4cc(ccc42)-c2csc(n2)CC(NC(=O)C2CC2C(F)F)C(=O)N2CCCC(N2)C(=O)OCC(C)(C)C3)-c2cc(N3CCN(C4CC4)CC3)cnc21 [Example 85, (1S,2S)-N-((1^5S,6^3S,4S,Z)-1^2-(4-cyclopropylpiperazin-1-yl)-15,10,10-trimethyl-5,7-dioxo-1^8,1^9,6 ,6^2,6^3,6^4,6^5,6^6-octahydro-1^5H,1^7H-8-oxa-1(13,15)-pyrido[3',2':7,8][1,5]oxazonino[5,6-a]indola-2(4,2)-thiazola-6(1,3)-pyridazinacycloundecaphane-4-yl)-2-(difluoromethyl)cyclopropane-1-car boxamide] | 3.72 | 0.63 | 5.56 | 19.9
6 | CC1OCCCn2c(c3c4cc(ccc42)-c2csc(n2)CC(NC(=O)C2CC2C(F)F)C(=O)N2CCCC(N2)C(=O)OCC(C)(C)C3)-c2cc(N(C)CCN(C)C)cnc21 [Example 87, (1S,2S)-2-(difluoromethyl)-N-((1^5S,6^3S,4S,Z)-1^2-((2-(dimethylamino)ethyl)(methyl)amino)-1^5,1 0,10-trimethyl-5,7-dioxo-1^8,1^9,6^1,6^2,6^3,6^4,6^5,6^6-octahydro-1^5H,1^7H-8-oxa-l(13,15)-pyrido[3',2':7 ,8][1,5]oxazonino[5,6-a]indola-2(4,2)-thiazola-6(1,3)-pyridazinacycloundecaphane-4-yl)cyclopr opane-1-carboxamide] | 8.3 | 2.75 | 38.8 | 184

Now those with a lower IC50 [1], led by results:

Row | IC50 [1] [nM] | IC50 [2] [nM] | IC50 (KRAS G12D-cRAF) [nM] | IC50 (KRAS G12V-cRAF) [nM] | SMILES
7 | 1.76 | 0.3 | 5.7 | 21.3 | CC1OCCCn2c(c3c4cc(ccc42)-c2csc(n2)CC(NC(=O)C24CC(C)(C2)C4)C(=O)N2CCCC(N2)C(=O)OCC(C)(C)C3)-c2cc(N3CCN(C)CC3)cnc21 [Example 80, 3-methyl-N-((1^53 ^3S,4S,Z)-1^5,10,10-trimethyl-1^2-(4-methylpiperazin-1-yl)-5,7-dioxo-1^8,1^9,6^1,6^2 ,6^3,6^4,6^5,^6-octahydro-1^5H,1^7H-8-oxa-1(13,15)-pyrido[3',2':7,8][1,5]oxazonino[5,6-a]indola-2(4, 2)-thiazola-6(1,3)-pyridazinacycloundecaphane-4-yl)bicyclo[1.1.1]pentane-1-carboxamide]
8 | 0.79 | 0.11 | 3.14 | 9.6 | CC1OCCCn2c(c3c4cc(ccc42)-c2csc(n2)CC(NC(=O)C2CC2C(F)F)C(=O)N2CCCC(N2)C(=O)OCC(C)(C)C3)-c2cc(N3CCN(C)CC3)cnc21 [Example 81, (1S,2S)-2-(difluoromethyl)-N-((1^5S,6^3S,4S,Z)-1^5,10,10-trimethyl-1^2-(4-methylpiperazin-1-yl)-5,7-dioxo-1^8,1^9,6^1,6^2,6^3,6^4,6^5,6^6-octahydro-1^5H,1^7H-8-oxa-1(13,15)-pyrido[3',2':7,8][1,5]oxazonino[5,6-a]indola-2(4,2)-thiazola-6(1,3)-pyridazinacycloundecaphane-4-yl)cyclopropane-1-carboxamide]
9 | 1.15 | 0.19 | 2.76 | 9.17 | CCN1CCN(c2cnc3c(c2)-c2c4c5cc(ccc5n2CCCOC3C)-c2csc(n2)CC(NC(=O)C2CC2C(F)F)C(=O)N2CCCC(N2)C(=O)OCC(C)(C)C4)CC1 [Example 84, (1S,2S)-2-(difluoromethyl)-N-((1^5S,6^3S,4S,Z)-1^2-(4-ethylpiperazin-1-yl)-1^5,10,10-trimethyl-5,7-dioxo-1^8,1^9,6^1,6^2,6^3,6^4,6^5,6^6-octahydro-1^5H,1^7H-8-oxa-1(13,15)-pyrido[3',2':7,8][1,5]oxazonino[5,6-a]indola-2(4,2)-thiazola-6(1,3)-pyridazinacycloundecaphane-4-yl)cyclopropane-1-carboxamide]
10 | 1.19 | 0.17 | 2.19 | 11 | CC1OCCCn2c(c3c4cc(ccc42)-c2csc(n2)CC(NC(=O)C2CC2C(F)F)C(=O)N2CCCC(N2)C(=O)OCC(C)(C)C3)-c2cc(N3CCN(C(C)C)CC3)cnc21 [Example 86, (1S,2S)-2-(difluoromethyl)-N-((1^5S,6^3S,4S,Z)-1^2-(4-isopropylpiperazin-1-yl)-1^5,10,10-trimethyl-5,7-dioxo-1^8,1^9,6^1,6^2,6^3,6^4,6^5,6^6-octahydro-1^5H,1^7H-8-oxa-1(13,15)-pyrido[3',2':7,8][1,5]oxazonino[5,6-a]indola-2(4,2)-thiazola-6(1,3)-pyridazinacycloundecaphane-4-yl)cyclopropane-1-carbox amide]
